{"source": "paper PMC6099102", "about": "“Effect of the Nature of Donor Atoms on the Thermodynamic, Kinetic and Relaxation Properties of Mn(II) Complexes Formed With Some Trisubstituted 12-Membered Macrocyclic Ligands” (Frontiers in Chemistry, 2018)", "assay": "Dissociation kinetics of the Mn(II) complexes (acid catalyzed dissociation, metal or ligand exchange reactions)", "format": "physicochemical", "details": "I = 0.15 M NaCl, 25 °C", "protocol": "The dissociation reactions were followed by UV-vis spectrophotometry at 269 nm for the pyclen derivatives or at 300 nm for other complexes in the pH range of 3.6–5.0 for the exchange reactions with Cu(II) and up to pH = 6.0 when Zn(II) was used as a ligand scavenger. The acid catalyzed dissociation reactions were performed in the HCl concentration range of 0.05–1.0 M. The concentration of the complexes in the samples was 0.25 mM, while the concentration of the exchanging metal ion in the metal initiated transchelation reactions was 10–40 times higher to ensure pseudo-first-order conditions. Relaxometry was used to follow the transchelation reactions of [Mn(DOTAM)]^2+, [Mn(DO3AM^H)]^2+, [Mn(DO3A)]^−, [Mn(PCTA)]^− and [Mn(ODO3A)]^− with Cu(II)/Zn(II) ions in the pH range of 3.6–5.5 (Figures S17–S19 in Supplementary Material). The concentration of the complexes in these samples was set to 1.0–2.0 mM to achieve relatively large change during the dissociation reaction. […] The temperature was maintained at 25 °C and the ionic strength of the solutions was kept constant at 0.15 M with NaCl. N,N′-dimethyl- (DMP) and N-methyl-piperazine (NMP) buffers (log K2H = 4.18 and 4.90 at 25 °C and I = 0.15 M NaCl, respectively) were used at 0.05 M concentration to keep the pH constant. The pseudo-first-order rate constants (kobs) were calculated by fitting the absorbance or relaxivity-time data pairs to Equation (1) (1) Xt=(X0-Xe)e^-kobst+Xe where Xt, X0, and Xe are the absorbance or relaxivity at time t, at the start and at equilibrium, respectively. The calculations were performed with the computer program Micromath Scientist, version 2.0 (Salt Lake City, UT, USA) using a standard least-squares procedure.\nThe kinetic inertness of the Mn(II) complexes is the other important parameter for the complexes considered for use in vivo. The inertness of Mn(II) complexes formed with trisubstituted 12-memberd macrocyclic ligands were characterized either by studying the rates of acid catalyzed dissociation or by studying transmetallation reactions occurring between the complexes and a suitable exchanging metal ion such as Zn(II) or Cu(II). The demetallation reactions of labile complexes were performed at high pH by following the ligand exchange reactions with trans-CDTA and DTPA ligands. The demetallation reactions were studied in the presence of a large Cu(II)/Zn(II)/trans-CDTA/DTPA excess or by using high acid concentration in order to ensure pseudo-first-order conditions (Equation 6). Scheme 1 outlines all the possible dissociation pathways for the Mn(II) complexes. […] The reactions of the released Mn(II) and L ligand with the exchanging L' and M' reactants are assumed to be very rapid.\nThe rate of dissociation can be expressed by the Equation (6), where kobs is the pseudo-first-order rate constant and [Mn(L)]t is the total concentration of the species containing [Mn(L)] complex. The [Mn(L)]t will differ slightly depending on the experimental conditions (in the presence of a large metal or ligand excess). As [Mn(L)]t = [Mn(L)] + [Mn(HL)] + [Mn(H2L)] + [Mn(L)M] + [Mn(L)(L')] + [Mn(HL)(L')] for reactions performed at high pH (in the pH range of 3.0–5.0 often applied in Cu(II) exchange reactions) will involve fewer protonated species while the acid catalyzed dissociation reactions run in the strongly acidic media (0.1–1.0 M acid concentration range) predominantly contain protonated species ([Mn(L)]t = [Mn(L)]+[Mn(HL)]+[Mn(H2L)]). (6) -d[MnL]t/dt=kobs[MnL]t\nBy taking into account the various complex species and the possible reaction pathways as well as the protonation and stability constants of the reactive intermediates, the following equation (Equation 7) can be derived to describe the rates of dissociation. […]", "note": "Where “and” joins values, the source holds several entries; their conditions need not be identical. Equal entries are not always repeated."}
{"smiles": "O=C(O)CN1CCNCCN(CC(=O)O)CCN(CC(=O)O)CC1", "note": "[DO3A]", "values": [{"measurement": "k1 (proton-assisted dissociation)", "value": 0.45, "unit": "M⁻¹ s⁻¹"}]}
{"smiles": "O=P(O)(O)CN1CCNCCN(CP(=O)(O)O)CCN(CP(=O)(O)O)CC1", "note": "[DO3P]", "values": [{"measurement": "k1 (proton-assisted dissociation)", "setting": "ligand exchange reaction with trans-CDTA^4− or DTPA^5− in the pH range 8-9.5", "value": 240000, "unit": "M⁻¹ s⁻¹"}]}
{"smiles": "NC(=O)CN1CCN(CC(N)=O)Cc2cccc(n2)CN(CC(N)=O)CC1", "note": "[PC3AM^H]", "values": [{"measurement": "k1 (proton-assisted dissociation)", "value": 0.0107, "unit": "M⁻¹ s⁻¹"}]}
{"smiles": "O=C(O)CN1CCN(CC(=O)O)Cc2cccc(n2)CN(CC(=O)O)CC1", "note": "[PCTA]", "values": [{"measurement": "k1 (proton-assisted dissociation)", "setting": "stopped-flow in highly acidic condition, proton-assisted dissociation of the [Mn(HL)] complex", "value": "0.112 M⁻¹ s⁻¹ and 0.109 M⁻¹ s⁻¹"}]}
{"smiles": "O=C(CN1CCN(CC(=O)N2CCCCC2)Cc2cccc(n2)CN(CC(=O)N2CCCCC2)CC1)N1CCCCC1.[Mn+2]", "note": "[[Mn(PC3AM^Pip)]^2+]", "values": [{"measurement": "k1 (proton-assisted dissociation)", "value": "(4.64 ± 0.04) × 10^−3 M^−1s^−1"}, {"measurement": "t1/2 0.1 M HCl", "setting": "half-life of dissociation calculated for 0.1 M H+", "value": 25, "unit": "min"}]}
